Measured values reported in patent publication US6331642A, “Vitamin D3 analogs” (Hoffmann-La Roche Inc., priority 2000, dated 2001).

What was measured:
seminal vesicles = experiment: Antiandrogenic activity in castrated testosterone stimulated hamsters, seminal vesicles; assay type: in vivo, male Syrian hamsters; conditions: testosterone 20 μg s.c. daily, 14 days; vehicle 36 ± 3; mg ± SEM
Description: (§1) 1,25(OH)2 -16-ene-5,6-trans D3 was evaluated for antiandrogenic activity in castrated, testosterone stimulated male Syrian hamsters.
(§2) […] Both compounds were administered in a vehicle of 0.2 ml sesame oil each. Necropsy was performed on day 15. The prostate and seminal vesicles were removed, blotted and weighed. Data were analyzed for statistical significance using the Student's t-test and are expressed as percent inhibition of stimulated response.

ventral prostate = experiment: Antiandrogenic activity in castrated testosterone stimulated hamsters, ventral prostate; assay type: in vivo, male Syrian hamsters; conditions: testosterone 20 μg s.c. daily, 14 days; vehicle 12 ± 1
Description: as §1, §2

## CCC(=O)O[C@H]1CC[C@H]2[C@@H]3CCC4=CC(=O)CC[C@]4(C)[C@H]3CC[C@]12C [Testosterone, testosterone propionate, reference compound]
Seminal vesicles
  Seminal vesicles weight: 105 ± 6 mg
Ventral prostate
  Ventral prostate weight: 43 ± 5 mg
